Results taken from ChEMBL document CHEMBL4507318, “Data for DCP probe BAY-985” (2021).

How the values were obtained:
[1] = biological target: Ankyrin repeat and protein kinase domain-containing protein 1 (Homo sapiens) (UniProt Q8NFD2)
[2] = biological target: Aurora kinase A (Homo sapiens) (UniProt O14965)
[3] = biological target: Serine/threonine-protein kinase BRSK1 (Homo sapiens) (UniProt Q8TDC3)
[4] = biological target: Calcium/calmodulin-dependent protein kinase type II subunit delta (Homo sapiens) (UniProt Q13557)
[5] = biological target: Cyclin-dependent kinase 9 (Homo sapiens) (UniProt P50750)
[6] = biological target: Cyclin-dependent kinase-like 5 (Homo sapiens) (UniProt O76039)
[7] = biological target: Dual specificity protein kinase CLK1 (Homo sapiens) (UniProt P49759)
[8] = biological target: Tyrosine-protein kinase CSK (Homo sapiens) (UniProt P41240)
[9] = biological target: Casein kinase I isoform alpha-like (Homo sapiens) (UniProt Q8N752)
Chain of Casein kinase I isoform alpha-like (Homo sapiens) (Q8N752 whole entry, canonical isoform): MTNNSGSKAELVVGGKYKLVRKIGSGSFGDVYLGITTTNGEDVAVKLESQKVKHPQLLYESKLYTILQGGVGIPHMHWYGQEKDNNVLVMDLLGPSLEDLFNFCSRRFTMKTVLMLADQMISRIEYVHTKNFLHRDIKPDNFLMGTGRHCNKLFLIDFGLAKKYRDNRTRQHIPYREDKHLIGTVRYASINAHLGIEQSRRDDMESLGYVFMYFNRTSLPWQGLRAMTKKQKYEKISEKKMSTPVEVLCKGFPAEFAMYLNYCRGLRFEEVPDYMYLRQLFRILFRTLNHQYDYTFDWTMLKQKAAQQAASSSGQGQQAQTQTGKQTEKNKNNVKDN

[10] = biological target: Mitogen-activated protein kinase kinase kinase 12 (Homo sapiens) (UniProt Q12852)
[11] = biological target: Receptor tyrosine-protein kinase erbB-3 (Homo sapiens) (UniProt P21860)
[12] = biological target: Mitogen-activated protein kinase 3 (Homo sapiens) (UniProt P27361)
[13] = biological target: Fibroblast growth factor receptor 2 (Homo sapiens) (UniProt P21802)
Chain of Fibroblast growth factor receptor 2 (Homo sapiens) (P21802 22-821 limits assumed): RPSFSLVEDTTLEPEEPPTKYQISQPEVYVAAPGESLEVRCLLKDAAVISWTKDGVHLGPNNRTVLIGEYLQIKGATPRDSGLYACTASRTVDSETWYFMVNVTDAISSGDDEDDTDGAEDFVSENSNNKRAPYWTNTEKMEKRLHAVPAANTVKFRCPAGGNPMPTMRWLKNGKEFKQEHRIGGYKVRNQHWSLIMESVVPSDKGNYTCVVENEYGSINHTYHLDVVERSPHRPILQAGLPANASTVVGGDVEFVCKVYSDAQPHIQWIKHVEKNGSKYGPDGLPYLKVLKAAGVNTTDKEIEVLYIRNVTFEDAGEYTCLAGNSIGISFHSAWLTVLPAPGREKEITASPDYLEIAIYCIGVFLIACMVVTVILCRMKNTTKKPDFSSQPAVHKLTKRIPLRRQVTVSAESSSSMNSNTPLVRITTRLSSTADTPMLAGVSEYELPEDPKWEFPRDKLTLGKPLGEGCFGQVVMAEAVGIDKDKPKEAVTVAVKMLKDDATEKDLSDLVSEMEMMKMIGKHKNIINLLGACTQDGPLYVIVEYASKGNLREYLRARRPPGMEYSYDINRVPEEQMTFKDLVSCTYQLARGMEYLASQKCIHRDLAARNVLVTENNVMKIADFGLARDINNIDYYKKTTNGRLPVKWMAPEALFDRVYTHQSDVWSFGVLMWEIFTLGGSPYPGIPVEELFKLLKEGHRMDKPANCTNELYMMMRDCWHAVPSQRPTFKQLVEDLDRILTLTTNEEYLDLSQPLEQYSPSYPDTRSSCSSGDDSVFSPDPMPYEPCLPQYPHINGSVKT

[14] = tested on: Receptor-type tyrosine-protein kinase FLT3 (Homo sapiens), P36888 [UNDEFINED MUTATION]
[15] = biological target: Vascular endothelial growth factor receptor 3 (Homo sapiens) (UniProt P35916)
[16] = biological target: Inhibitor of nuclear factor kappa-B kinase subunit beta (Homo sapiens) (UniProt O14920)
[17] = tested on: Mast/stem cell growth factor receptor Kit (Homo sapiens), P10721 [V559D]
[18] = biological target: Serine/threonine-protein kinase 10 (Homo sapiens) (UniProt O94804)
[19] = biological target: Tyrosine-protein kinase Lyn (Homo sapiens) (UniProt P07948)
[20] = biological target: MAP kinase-activated protein kinase 5 (Homo sapiens) (UniProt Q8IW41)
[21] = biological target: Hepatocyte growth factor receptor (Homo sapiens) (UniProt P08581)
[22] = tested on: Hepatocyte growth factor receptor (Homo sapiens), P08581 [Y1235D]
[23] = biological target: Serine/threonine-protein kinase 3 (Homo sapiens) (UniProt Q13188)
[24] = biological target: Serine/threonine-protein kinase mTOR (Homo sapiens) (UniProt P42345)
[25] = biological target: Myosin light chain kinase, smooth muscle (Homo sapiens) (UniProt Q15746)
[26] = biological target: Serine/threonine-protein kinase Nek7 (Homo sapiens) (UniProt Q8TDX7)
[27] = biological target: Mitogen-activated protein kinase 14 (Homo sapiens) (UniProt Q16539)
Chain of Mitogen-activated protein kinase 14 (Homo sapiens) (Q16539 whole entry): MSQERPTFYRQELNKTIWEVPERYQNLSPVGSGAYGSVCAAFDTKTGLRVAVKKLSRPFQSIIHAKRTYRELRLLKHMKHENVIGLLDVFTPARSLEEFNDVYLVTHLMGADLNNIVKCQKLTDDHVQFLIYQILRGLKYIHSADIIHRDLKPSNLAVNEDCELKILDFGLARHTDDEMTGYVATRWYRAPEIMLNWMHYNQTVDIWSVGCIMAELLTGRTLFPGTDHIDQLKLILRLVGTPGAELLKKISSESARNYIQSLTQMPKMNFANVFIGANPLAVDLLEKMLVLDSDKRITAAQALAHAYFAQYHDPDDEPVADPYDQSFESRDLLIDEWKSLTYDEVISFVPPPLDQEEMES

[28] = biological target: Serine/threonine-protein kinase PAK 2 (Homo sapiens) (UniProt Q13177)
[29] = biological target: Serine/threonine-protein kinase PAK 4 (Homo sapiens) (UniProt O96013)
[30] = biological target: Calcium-dependent protein kinase 1 (Plasmodium falciparum) (UniProt P62344)
[31] = biological target: Phosphatidylinositol 3-kinase C2 domain-containing subunit gamma (Homo sapiens) (UniProt O75747)
Chain of Phosphatidylinositol 3-kinase C2 domain-containing subunit gamma (Homo sapiens) (O75747 whole entry, the tested form may be a part, canonical isoform): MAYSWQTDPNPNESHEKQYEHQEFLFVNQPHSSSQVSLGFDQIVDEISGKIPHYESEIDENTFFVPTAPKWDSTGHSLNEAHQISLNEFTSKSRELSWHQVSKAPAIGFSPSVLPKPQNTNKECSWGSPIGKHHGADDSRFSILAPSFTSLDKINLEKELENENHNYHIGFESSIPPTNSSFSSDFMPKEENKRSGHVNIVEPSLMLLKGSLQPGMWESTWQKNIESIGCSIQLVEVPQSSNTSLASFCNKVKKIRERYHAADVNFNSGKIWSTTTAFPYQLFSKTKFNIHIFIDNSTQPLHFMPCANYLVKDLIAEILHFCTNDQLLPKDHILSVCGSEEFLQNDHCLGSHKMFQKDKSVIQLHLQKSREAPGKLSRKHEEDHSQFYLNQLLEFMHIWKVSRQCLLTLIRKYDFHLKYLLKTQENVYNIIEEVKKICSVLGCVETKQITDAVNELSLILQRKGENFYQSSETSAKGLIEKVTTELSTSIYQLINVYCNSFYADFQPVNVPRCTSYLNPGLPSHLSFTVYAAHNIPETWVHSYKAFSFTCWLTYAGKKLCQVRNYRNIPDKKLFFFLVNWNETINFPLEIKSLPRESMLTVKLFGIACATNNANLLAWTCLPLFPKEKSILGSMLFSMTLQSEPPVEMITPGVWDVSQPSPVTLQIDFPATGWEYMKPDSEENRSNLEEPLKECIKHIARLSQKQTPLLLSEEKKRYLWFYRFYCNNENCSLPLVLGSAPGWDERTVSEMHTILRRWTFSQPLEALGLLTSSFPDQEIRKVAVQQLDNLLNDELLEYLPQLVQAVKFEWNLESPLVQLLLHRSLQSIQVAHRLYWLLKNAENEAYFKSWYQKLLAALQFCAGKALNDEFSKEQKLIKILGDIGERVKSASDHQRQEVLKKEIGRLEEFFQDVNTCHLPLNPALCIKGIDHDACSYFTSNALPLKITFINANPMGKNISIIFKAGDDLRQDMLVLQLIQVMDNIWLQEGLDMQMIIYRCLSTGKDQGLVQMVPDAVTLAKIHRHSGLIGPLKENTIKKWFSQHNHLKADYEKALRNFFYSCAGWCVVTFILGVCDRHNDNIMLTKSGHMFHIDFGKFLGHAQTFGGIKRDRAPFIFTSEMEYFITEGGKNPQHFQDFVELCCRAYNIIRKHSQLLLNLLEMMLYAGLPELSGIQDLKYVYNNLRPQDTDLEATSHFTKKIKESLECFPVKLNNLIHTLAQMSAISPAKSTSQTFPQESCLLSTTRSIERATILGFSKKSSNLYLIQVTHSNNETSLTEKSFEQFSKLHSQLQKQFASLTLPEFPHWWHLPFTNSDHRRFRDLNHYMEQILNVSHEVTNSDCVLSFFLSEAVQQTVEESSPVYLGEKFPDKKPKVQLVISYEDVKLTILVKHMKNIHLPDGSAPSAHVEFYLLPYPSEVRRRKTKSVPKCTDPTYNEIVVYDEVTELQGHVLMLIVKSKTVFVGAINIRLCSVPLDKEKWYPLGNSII

[32] = biological target: Phosphatidylinositol 4,5-bisphosphate 3-kinase catalytic subunit gamma isoform (Homo sapiens) (UniProt P48736)
[33] = biological target: Serine/threonine-protein kinase pim-2 (Homo sapiens) (UniProt Q9P1W9)
[34] = biological target: Phosphatidylinositol 4-phosphate 5-kinase type-1 gamma (Homo sapiens) (UniProt O60331)
[35] = biological target: Serine/threonine-protein kinase PLK3 (Homo sapiens) (UniProt Q9H4B4)
[36] = biological target: Protein kinase C iota type (Homo sapiens) (UniProt P41743)
Chain of Protein kinase C iota type (Homo sapiens) (P41743 whole entry): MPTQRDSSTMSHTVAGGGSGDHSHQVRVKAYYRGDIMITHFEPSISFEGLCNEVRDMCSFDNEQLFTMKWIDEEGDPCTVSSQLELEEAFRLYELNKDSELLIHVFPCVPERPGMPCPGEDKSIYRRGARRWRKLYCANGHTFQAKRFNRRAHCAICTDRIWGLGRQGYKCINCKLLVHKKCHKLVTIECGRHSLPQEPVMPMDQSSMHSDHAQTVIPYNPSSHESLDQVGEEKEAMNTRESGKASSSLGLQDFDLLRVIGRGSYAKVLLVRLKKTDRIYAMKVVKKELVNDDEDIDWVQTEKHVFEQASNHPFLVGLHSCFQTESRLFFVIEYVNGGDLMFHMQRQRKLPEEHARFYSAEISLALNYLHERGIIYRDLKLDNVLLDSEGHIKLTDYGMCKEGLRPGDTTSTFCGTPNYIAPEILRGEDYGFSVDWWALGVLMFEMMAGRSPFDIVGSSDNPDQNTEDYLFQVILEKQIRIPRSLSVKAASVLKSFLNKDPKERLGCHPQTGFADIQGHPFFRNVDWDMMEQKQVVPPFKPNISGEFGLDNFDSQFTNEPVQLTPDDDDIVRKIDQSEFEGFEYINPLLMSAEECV

[37] = biological target: Ribosomal protein S6 kinase alpha-4 (Homo sapiens) (UniProt O75676)
[38] = biological target: Ribosomal protein S6 kinase alpha-1 (Homo sapiens) (UniProt Q15418)
[39] = biological target: Ribosomal protein S6 kinase alpha-3 (Homo sapiens) (UniProt P51812)
[40] = biological target: NUAK family SNF1-like kinase 2 (Homo sapiens) (UniProt Q9H093)
[41] = biological target: SRSF protein kinase 3 (Homo sapiens) (UniProt Q9UPE1)
Chain of SRSF protein kinase 3 (Homo sapiens) (Q9UPE1 whole entry): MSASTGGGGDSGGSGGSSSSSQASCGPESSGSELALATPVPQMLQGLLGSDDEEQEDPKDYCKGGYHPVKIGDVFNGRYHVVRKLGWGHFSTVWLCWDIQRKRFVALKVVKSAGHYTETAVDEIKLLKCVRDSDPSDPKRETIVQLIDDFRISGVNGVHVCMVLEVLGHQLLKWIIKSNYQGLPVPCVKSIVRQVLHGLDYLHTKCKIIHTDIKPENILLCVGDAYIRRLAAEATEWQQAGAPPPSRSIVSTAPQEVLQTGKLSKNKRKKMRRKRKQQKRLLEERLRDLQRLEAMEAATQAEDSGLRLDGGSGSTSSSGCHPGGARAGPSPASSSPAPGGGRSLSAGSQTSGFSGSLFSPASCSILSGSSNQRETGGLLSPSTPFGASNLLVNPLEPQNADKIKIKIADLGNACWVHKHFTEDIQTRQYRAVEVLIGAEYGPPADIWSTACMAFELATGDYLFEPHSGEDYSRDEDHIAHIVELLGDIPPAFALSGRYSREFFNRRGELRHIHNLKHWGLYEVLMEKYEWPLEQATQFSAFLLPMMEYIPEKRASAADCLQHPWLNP

[42] = biological target: STE20/SPS1-related proline-alanine-rich protein kinase (Homo sapiens) (UniProt Q9UEW8)
[43] = biological target: BDNF/NT-3 growth factors receptor (Homo sapiens) (UniProt Q16620)
Chain of BDNF/NT-3 growth factors receptor (Homo sapiens) (Q16620 32-822 limits assumed): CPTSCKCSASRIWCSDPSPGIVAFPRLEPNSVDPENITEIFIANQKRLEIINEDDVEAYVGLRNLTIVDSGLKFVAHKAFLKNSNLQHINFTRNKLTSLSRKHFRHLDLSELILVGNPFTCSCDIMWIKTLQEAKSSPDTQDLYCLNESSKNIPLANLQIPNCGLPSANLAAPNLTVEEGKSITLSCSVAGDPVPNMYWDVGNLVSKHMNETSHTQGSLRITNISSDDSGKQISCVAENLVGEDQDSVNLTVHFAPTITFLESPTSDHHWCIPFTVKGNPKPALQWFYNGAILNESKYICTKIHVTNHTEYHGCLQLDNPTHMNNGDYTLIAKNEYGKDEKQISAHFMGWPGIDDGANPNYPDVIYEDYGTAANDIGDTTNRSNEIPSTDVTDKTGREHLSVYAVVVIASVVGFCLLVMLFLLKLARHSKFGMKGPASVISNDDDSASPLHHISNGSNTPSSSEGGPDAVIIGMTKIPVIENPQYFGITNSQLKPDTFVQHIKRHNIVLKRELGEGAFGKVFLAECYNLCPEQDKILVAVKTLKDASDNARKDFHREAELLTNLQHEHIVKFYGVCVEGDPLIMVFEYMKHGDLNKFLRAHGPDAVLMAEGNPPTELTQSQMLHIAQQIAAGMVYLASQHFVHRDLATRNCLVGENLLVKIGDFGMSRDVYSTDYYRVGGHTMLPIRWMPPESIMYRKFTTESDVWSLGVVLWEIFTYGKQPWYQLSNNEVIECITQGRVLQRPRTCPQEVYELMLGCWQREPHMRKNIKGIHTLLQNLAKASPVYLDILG

[44] = biological target: Tyrosine-protein kinase Yes (Homo sapiens) (UniProt P07947)
[45] = biological target: Delta-type opioid receptor (Homo sapiens) (UniProt P41143); settings: Compound concentration 10.0 uM
[46] = Compound concentration 1000.0 nM
[47] = Compound concentration 100.0 nM

CN(C)c1ncnc(-c2ccc3nc(Nc4cc(CN5CCN(C(=O)CC(F)(F)F)CC5)ccn4)[nH]c3c2)c1Cl [BAY-440]
inactive: residual activity [1, 46] 57% | residual activity [2, 46] 84% | residual activity [3, 46] 100% | residual activity [4, 46] 90% | residual activity [5, 46] 100% | residual activity [6, 46] 66% | residual activity [7, 46] 71% | residual activity [8, 46] 84% | residual activity [9, 46] 94% | residual activity [10, 46] 64% | residual activity [11, 46] 63% | residual activity [12, 46] 100% | residual activity [13, 46] 100% | residual activity [15, 46] 63% | residual activity [16, 46] 80% | residual activity [17, 46] 75% | residual activity [18, 46] 54% | residual activity [19, 46] 94% | residual activity [20, 46] 96% | residual activity [21, 46] 69% | residual activity [22, 46] 68% | residual activity [23, 46] 100% | residual activity [24, 46] 100% | residual activity [25, 46] 68% | residual activity [26, 46] 100% | residual activity [27, 46] 100% | residual activity [28, 46] 100% | residual activity [29, 46] 100% | residual activity [30, 46] 100% | residual activity [31, 46] 83% | residual activity [32, 46] 100% | residual activity [33, 46] 100% | residual activity [34, 46] 100% | residual activity [35, 46] 100% | residual activity [36, 46] 79% | residual activity [37, 46] 73% | residual activity [38, 46] 100% | residual activity [39, 46] 81% | residual activity [40, 46] 66% | residual activity [41, 46] 100% | residual activity [42, 46] 69% | residual activity [43, 46] 63% | residual activity [44, 46] 76% | inhibition [45] 2.06%
active: residual activity [14, 46] 15%

C[C@H](c1ccnc(Nc2nc3ccc(-c4cc(N(C)C)ncn4)cc3[nH]2)c1)N1CCN(C(=O)CC(F)(F)F)CC1 [BAY-985]
inactive: residual activity [1, 47] 99% | residual activity [2, 47] 100% | residual activity [3, 47] 100% | residual activity [4, 47] 70% | residual activity [5, 47] 100% | residual activity [6, 47] 100% | residual activity [7, 47] 90% | residual activity [8, 47] 100% | residual activity [9, 47] 94% | residual activity [10, 47] 100% | residual activity [11, 47] 88% | residual activity [12, 47] 89% | residual activity [13, 47] 100% | residual activity [14, 47] 64% | residual activity [15, 47] 92% | residual activity [16, 47] 99% | residual activity [17, 47] 99% | residual activity [18, 47] 86% | residual activity [19, 47] 97% | residual activity [20, 47] 86% | residual activity [21, 47] 100% | residual activity [22, 47] 100% | residual activity [23, 47] 93% | residual activity [24, 47] 75% | residual activity [25, 47] 100% | residual activity [26, 47] 100% | residual activity [27, 47] 100% | residual activity [28, 47] 68% | residual activity [29, 47] 81% | residual activity [30, 47] 100% | residual activity [31, 47] 94% | residual activity [32, 47] 100% | residual activity [33, 47] 100% | residual activity [34, 47] 89% | residual activity [35, 47] 100% | residual activity [36, 47] 100% | residual activity [37, 47] 94% | residual activity [38, 47] 100% | residual activity [39, 47] 100% | residual activity [40, 47] 95% | residual activity [41, 47] 100% | residual activity [42, 47] 100% | residual activity [43, 47] 100% | residual activity [44, 47] 92% | inhibition [45] 29%
